We go through two molecules from US4829061A, “1-(4-Hydroxy-3,5-di-tert.-butylbenzoyl)homopiperazine, various derivatives thereof, processes for the preparation of these compounds, medicaments containing them, and their use” (Hoechst Aktiengesellschaft, priority 1987, dated 1989).

The test system of one data set is cGvH disease. The experiment in a line: Chronic graft-versus-host (cGvH) reaction in the mouse. It is filed as in vivo, mouse (female (DBA/2×C57Bl/6)F1). As to conditions: 6 weeks from day 21. On the procedure:
(§1) The antiinflammatory effect of the compounds of the formula I, according to the invention, was tested on adjuvant arthritis, and the effect on forms of rheumatic disorders having a severe course (chronic graft-versus-host diseases and autoimmune diseases mediated by immune complexes) was tested on the chronic graft-versus-host (cGvH) reaction in the mouse and in the reverse passive Arthus reaction in the rat in accordance with the animal models described below. The tolerability was determined by determining the toxicity in rats, namely by continuous administration for 14 days.
The features of graft-versus-host disease, which is based on an immune reaction originating from the transplant and directed against the host tissue, are, in the form having an acute course which almost always ends fatally, enlargement of the spleen, hepatomegaly, lymph node hypertrophy, hemolytic anemia, low immunoglobulin and complement levels, and diminished immunoreactivity. The chronic form of the disease, which has a somewhat milder course, results in lymphadenopathy, immune complex glomerulonephritis and excessive formation of non-organ-specific autoantibodies. The clinical picture of systemic lupus erythematosus (SLE), which is likewise one of the autoimmune diseases, has similar features.
Investigation of the compounds used according to the invention on the course of the cGvH disease induced in response to two injections of spleen and thymus cells, mixed together, in female mice of the (DBA/2×C57Bl/6)F1 generation was carried out by the design of experiment described by S. Popovic and R. R. Bartlett (Agents and Actions 21 (1987), 284-286), with intravenous administration, at a time interval of 7 days, of, in each case, 5×10^7 DBA/2 cells, likewise obtained from female donor animals, in 0.2 ml of culture medium. For reliable assessment of the course and appearance of the disease, a group of healthy animals was included as negative controls in all the experiments. The 6-week oral treatment of the animals with the disease took place from day 21 after the first donor cell injection, with administration once a day of the test substance or the pure vehicle (positive controls). […]
The action of the product was assessed on the basis of the inhibition of proteinuria and the cGvH index. The animals with the disease develop, as a consequence of the damage to nephrons due to deposition of immune complexes on the basement membranes of the glomeruli, a pronounced proteinuria which correlates with the extent of the glomerulonephritis and can easily be quantified by the increase in the amount of protein excreted with the urine. The second measured parameter, the cGvH index, is based on the great enlargement of the spleen (splenomegaly) caused by the cGvH reaction. […]

For data set [1], the system named is reverse passive Arthus reaction. The experiment in a line: Reverse passive Arthus reaction in the rat. The class given is in vivo, rat (female and male Sprague-Dawley). As to conditions: 1 hour before induction, paw volume 4 hours after ovalbumin challenge. On the procedure:
as §1
The experimental animals used were female and male Sprague-Dawley rats with a body weight between 80 and 100 g. The rats were divided into groups each comprising 8 animals. 1 hour before the Arthus reaction was induced by injection of 0.1 ml of an anti-rat IgG solution (0.6 mg/ml) into the right rear paw, the particular test substance or the pure vehicle (positive controls) was administered orally. Sodium chloride solution was injected into the left paw. A group of non-sensitized animals (negative controls) was likewise treated with ovalbumin in order to be able to rule out non-specific reactions to the protein. The parameter used to measure the action of the products was the percentage change in the increase in paw volume compared with that in the control group (positive controls) which, although sensitized, was untreated, 4 hours after the ovalbumin challenge, when the swelling had reached its maximum.

A short description of data set [2]: Determination of toxicity in the rat, 14 days (weight gain). It is filed as in vivo, rat (male and female Wistar). The settings on record: 50 or 75 mg/kg p.o. each day for 14 days. On the procedure:
as §1
Groups of 10 male and female Wistar rats were fed each day for a period of 14 days with 50 or 75 mg/kg p.o., and were weighed every 2 days. The experiment was terminated after 14 days, and the weight gain was determined. The same number of rats not treated with the products acted as controls. […] This is regarded as a critical parameter for the tolerability of a compound.

In data set [3] the test system is adjuvant-induced arthritis in the rat. The experiment in a line: Adjuvant arthritis (method of Pearson), paw volume. It is filed as in vivo, rat (male, Wistar-Lewis strain). The settings on record: 50 mg/kg p.o. once a day, day 1 to 5; reduction in increase in paw volume vs control. On the procedure:
as §1
The investigations were carried out by the method of Pearson (Arthrit. Rheum. 2 (1959) page 44). The test animals used were male rats of a Wistar-Lewis strain with a body weight between 130 and 200 g. The compounds to be tested were administered orally (p.o.) in doses of 50 mg per kg of body weight once a day from the 1st to the 5th day of the experiment. The animals in a control group received only the vehicle. Each product and control group comprised 8 animals. The criterion used for an effect was the percentage reduction in the increase in paw volume compared with that in the untreated control group.

Turning to `CC(C)(C)c1cc(C(=O)N2CCCN(C(=O)OCc3ccccc3)CC2)cc(C(C)(C)C)c1O` [Example 1, 1-(4-Hydroxy-3,5-di-tert.-butylbenzoyl)-4-benzyloxycarbonylhomopiperazine], in the data set with cGvH disease (5 mg/kg/day p.o.), the “% inhibition Proteinuria” value is 100% and the “% inhibition cGvH index” value worked out at 57%. Also, in the data set on cGvH disease (20 mg/kg/day p.o.), the “% inhibition Proteinuria” value amounted to 80% and the “% inhibition cGvH index” value came out at 75%. The “Reverse passive Arthus reaction, % inhibition” value in data set [1] (100 mg/kg p.o.) stood at 25%. For the same molecule, the “change in the weights (weight gain)” value in data set [2] was “no significant change in the weights”. Also, in data set [3], the “% inhibition in paw volume day 5” value is recorded as 25%.
For the molecule `CC(C)(C)c1cc(C(=O)N2CCCNCC2)cc(C(C)(C)C)c1O` [Example 2, 1-(4-Hydroxy-3,5-di-tert.-butylbenzoyl)homopiperazine], the “Reverse passive Arthus reaction, % inhibition” value in data set [1] (20 mg/kg p.o.) came to 28%; in data set [1] (25 mg/kg p.o.) it was 37%. The “change in the weights (weight gain)” value in data set [2] was “no significant change in the weights”. Moreover, in data set [3], the “% inhibition in paw volume day 5” value is recorded as 34%.
